From publication PMC6199744, “Development of Chemical Proteomics for the Folateome and Analysis of the Kinetoplastid Folateome” (ACS Infectious Diseases, 2018)

System: L. major lysate proteins
Assay: Multitargeted bead mixture chemoproteomics, single concentration competition, proteome-wide
Format: binding

`NCCCNc1ccc(C(=O)NC(CCC(=O)O)C(=O)O)cc1` (stereo not drawn) [compound 7] was tested, and the fold change (protein LMJF.35.0420 40S RIBOSOMAL PROTEIN S3A, PUTATIVE, vehicle control = 1) was 1.04, the “fold change relative to vehicle control” value (protein LMJF.35.1220, SHORT CHAIN DEHYDROGENASE, PUTATIVE) was 1.22 and the “fold change relative to vehicle control” value (protein LMJF.35.1380, MIT[…], BETA SUBUNIT, PUTATIVE) was 1.09. The “fold change vs vehicle control” value (protein LMJF.35.1830 HYPOTHETICAL PROTEIN, CONSERVED) was 0.96, the “fold change vs vehicle control” value (protein LMJF.35.3340 6-phosphogluconate dehydrogenase) was 1.02 and the fold change (protein LMJF.35.3700 GIM5A PROTEIN, PUTATIVE,GLYCOSOMAL MEMBRANE PROTEIN, vehicle control = 1) was 0.89. For the same compound, the “fold change vs vehicle control” value (protein LMJF.35.3760 60S RIBOSOMAL PROTEIN L27A/L29, PUTATIVE) was 0.84, the “fold change relative to vehicle control” value (protein LMJF.35.3840, […] 2 SUBUNIT, PUTATIVE) was 1.34 and the “fold change vs vehicle control” value (protein LMJF.35.3860 T-COMPLEX PROTEIN 1, ETA SUBUNIT, PUTATIVE) was 0.92. The fold change (protein LMJF.35.4420 MIT[…] TRANSPORTER, PUTATIVE, vehicle control = 1) was 1.06, the “fold change relative to vehicle control” value (protein LMJF.35.4880, HYPOTHETICAL PROTEIN, CONSERVED (TPR repeat, putative)) was 0.98 and the “fold change relative to vehicle control” value (protein LMJF.35.5330, ISOPENTENYL-D[…]-ISOMERASE, PUTATIVE) was 1.02. The “fold change relative to vehicle control” value (protein LMJF.36.0070, STRESS-INDUCIBLE PROTEIN STI1 HOMOLOG) was 1.21, the fold change (protein LMJF.36.0480 HY[…], CONSERVED, vehicle control = 1) was 1.01 and the “fold change vs vehicle control” value (protein LMJF.36.0620 HY[…], CONSERVED) was 1.07. For the same compound, the “fold change vs vehicle control” value (protein LMJF.36.0930 40S RIBOSOMAL PROTEIN S18, PUTATIVE) was 1.09, the “fold change vs vehicle control” value (protein LMJF.36.0990 40S RIBOSOMAL PROTEIN S10, PUTATIVE) was 1.03 and the fold change (protein LMJF.36.1140 SHORT CHAIN 3-HYDROXYACYL-COA DEHYDROGENASE, PUTATIVE, vehicle control = 1) was 0.85. For the same compound, the “fold change relative to vehicle control” value (protein LMJF.36.1260, FRUCTOSE-1,6-BI[…]) was 1.01, the fold change (protein LMJF.36.1340 N-ACETYLTRANSFERASE SUBUNIT NAT1, PUTATIVE, vehicle control = 1) was 0.79 and the “fold change vs vehicle control” value (protein LMJF.36.1650 PROTEASOME BETA 5 SUBUNIT, PUTATIVE) was 0.99. For the same compound, the “fold change relative to vehicle control” value (protein LMJF.36.2380, STEROL 24-C-METHYLTRANSFERASE, PUTATIVE) was 0.97, the “fold change vs vehicle control” value (protein LMJF.36.2950 SUCCINYL-COA LIGASE GDP-FORMING] BETA-CHAIN, PUTATIVE) was 1 and the “fold change vs vehicle control” value (protein LMJF.36.3210 14-3-3 PROTEIN-LIKE PROTEIN) was 0.87. For the same compound, the “fold change vs vehicle control” value (protein LMJF.36.3410 SHORT CHAIN DEHYDROGENASE-LIKE PROTEIN) was 1.26, the fold change (protein LMJF.36.3460 HYPOTHETICAL PROTEIN, CONSERVED (NIPSNAP, putative), vehicle control = 1) was 0.88 and the fold change (protein LMJF.36.3580 HY[…], CONSERVED (Protein of unknown function (DUF2009), putative), vehicle control = 1) was 1.12. The fold change (protein LMJF.36.3750 40S RIBOSOMAL PROTEIN S27-1, PUTATIVE, vehicle control = 1) was 1.02, the “fold change vs vehicle control” value (protein LMJF.36.5010 40S RIBOSOMAL PROTEIN SA, PUTATIVE) was 1.12 and the “fold change vs vehicle control” value (protein LMJF.36.5130 HY[…], CONSERVED) was 1.42. For the same compound, the “fold change vs vehicle control” value (protein LMJF.36.5150 HYPOTHETICAL PROTEIN, CONSERVED) was 0.97, the “fold change relative to vehicle control” value (protein LMJF.36.5380, NADH DEHYDROGENASE, PUTATIVE) was 1.14 and the “fold change vs vehicle control” value (protein LMJF.36.5390 PHOSPHORIBOSYLPYROPHOSPHATE SYNTHETASE, PUTATIVE) was 0.89. The “fold change vs vehicle control” value (protein LMJF.36.5620 ISOLEUCYL-TRNA SYNTHETASE, PUTATIVE) was 1, the fold change (protein LMJF.36.6430 PROTEIN TRANSPORT PROTEIN SEC23-LIKE PROTEIN, vehicle control = 1) was 0.89 and the “fold change vs vehicle control” value (protein LMJF.36.6760 HY[…], CONSERVED) was 1.01. The “fold change relative to vehicle control” value (protein LMJF.[…], MIT[…] BETA SUBUNIT, PUTATIVE) was 0.91, the “fold change relative to vehicle control” value (protein LMJF.[…], POLY(A) EXPORT PROTEIN, PUTATIVE) was 1.14 and the fold change (vs vehicle control, protein LINJ.20.0630 CYTIDINE TR[…], PUTATIVE,CTP SYNTHASE, PUTATIVE) was 1.04. For the same compound, the fold change (vs vehicle control, protein LINJ.20.1390 COATOMER BETA SUBUNIT, PUTATIVE) was 0.87, the fold change (vs vehicle control, protein LMJF.05.1140 VACUOLAR ATPASE SUBUNIT-LIKE PROTEIN) was 0.93 and the fold change (vs vehicle control, protein LMJF.07.1090 DELTA-5 FATTY ACID DESATURASE) was 0.92. For the same compound, the fold change (vs vehicle control, protein LMJF.09.0220 HYPOTHETICAL PROTEIN, CONSERVED) was 0.78, the fold change (vs vehicle control, protein LMJF.11.1030 HYPOTHETICAL PROTEIN, CONSERVED) was 0.93 and the fold change (vs vehicle control, protein LMJF.14.0640 FATTY ACID ELONGASE, PUTATIVE) was 0.8. It also gave a fold change (vs vehicle control, protein LMJF.14.0705 FATTY ACID ELONGASE, PUTATIVE) of 1.17, a fold change (vs vehicle control, protein LMJF.14.1120 KINESIN K39, PUTATIVE) of 0.6 and a fold change (vs vehicle control, protein LMJF.16.1610 PROHIBITIN) of 1.07. It also gave a fold change (vs vehicle control, protein LMJF.17.0010 HYPOTHETICAL PROTEIN, CONSERVED) of 0.87, a fold change (vs vehicle control, protein LMJF.18.1130 RAS-RELATED PROTEIN RAB-5, PUTATIVE) of 0.68 and a fold change (vs vehicle control, protein LMJF.19.1420 CYSTEINE PEPTIDASE A (CPA)) of 0.9. For the same compound, the fold change (vs vehicle control, protein LMJF.21.0280 HY[…], CONSERVED) was 0.94, the fold change (vs vehicle control, protein LMJF.22.1560 40S RIBOSOMAL PROTEIN L14, PUTATIVE) was 0.7 and the fold change (vs vehicle control, protein LMJF.23.1220 T-COMPLEX PROTEIN 1, GAMMA SUBUNIT, PUTATIVE) was 1.02. The fold change (vs vehicle control, protein LMJF.24.0370 ASPARTATE AMINOTRANSFERASE, PUTATIVE) was 1.01, the fold change (vs vehicle control, protein LMJF.25.1770 ENOYL-COA REDUCTASE, PUTATIVE) was 1.02 and the fold change (vs vehicle control, protein LMJF.26.0170 60S RIBOSOMAL PROTEIN L7, PUTATIVE) was 0.9. For the same compound, the fold change (vs vehicle control, protein LMJF.26.1550 TRI[…] ALPHA SUBUNIT, MIT[…]-LIKE PROTEIN) was 1.06, the fold change (vs vehicle control, protein LMJF.26.1610 PROLINE OXIDASE, MITOCHONDRIAL PRECURSOR-LIKE PROTEIN) was 0.83 and the fold change (vs vehicle control, protein LMJF.28.1950 X-PRO, DIPEPTIDYL-PEPTIDASE,SERINE PEPTIDASE, CLAN SC, FAMILY S15, PUTATIVE) was 1.14. The fold change (vs vehicle control, protein LMJF.31.1070 BIOTIN/LIPOATE PROTEIN LIGASE-LIKE PROTEIN) was 0.87, the fold change (vs vehicle control, protein LMJF.32.1370 HYPOTHETICAL PROTEIN, CONSERVED) was 0.91 and the fold change (vs vehicle control, protein LMJF.34.0490 IMPORTIN BETA-1 SUBUNIT, PUTATIVE) was 0.78. For the same compound, the fold change (vs vehicle control, protein LMJF.34.4060 UBIQUITIN HYDROLASE, PUTATIVE,CYSTEINE PEPTIDASE, CLAN CA, FAMILY C19, PUTATIVE) was 0.91, the fold change (vs vehicle control, protein LMJF.36.1600 PROTEASOME ALPHA 1 SUBUNIT, PUTATIVE) was 0.95 and the fold change (vs vehicle control, protein LMJF.[…] RIBOSOMAL PROTEIN S7, PUTATIVE) was 1.
